Data taken from US20210093607A1, “ANTITUMOR NANO-DRUG” (SICHUAN YUANNING BIOLOGICAL TECHNOLOGY CO., LTD., priority 2018, published 2021).
Structures can show the parent of a compound that is named as a salt.

What was measured:
[1] = system: SW480 cells; experiment: Determination of superoxide anion in mitochondria; assay type: cell-based, human; conditions: SW480, 1 mM, incubation 4 h, laser confocal
Procedure: Determination of superoxide anion (O2^+) in mitochondria: SW480 cells in logarithmic growth active phase were prepared into cell suspension and added into 6-well plate (5×10^5 cells/well). […] After incubation for 4 h, the old culture medium was removed and 1 mL of fluorescent amine dye (50 μM) was added. After incubation for 2 h, cysteine was added to make the final concentration to be 200 μM. After incubation for 0.5 h, culture medium was removed and cells were washed with Krebs buffer for 3 times, then mitochondrial red dye was added to proceed mitochondrial staining for 30 min, and cells were washed with 37°C. medium for 3 times. Finally, the emission of fluorescent amine at 440-480 nm was detected by laser confocal to quantify […], and the emission of mitochondrial red dye at 590-650 nm was detected to locate mitochondria in cells.
Determination of superoxide anion (O2^+) in mitochondria: SW480 cells in logarithmic growth active phase were prepared into cell suspension and added into 6-well plate (5×10^5 cells/well). […] Finally, the emission of fluorescent amine at 440-480 nm was detected by laser confocal to quantify O2^+, and the emission of mitochondrial red dye at 590-650 nm was detected to locate mitochondria in cells.

[2] = system: SW480 cells; experiment: Determination of mitochondrial membrane potential (JC-1); assay type: cell-based, human; conditions: SW480, 1 mM, incubation 24 h, JC-1, flow cytometry
Procedure: Determination of mitochondrial membrane potential: SW480 cells in logarithmic growth active phase were prepared into cell suspension and added into 6-well plate (5×10^5 cells/well). […] After incubation for 24 h, the old culture medium was removed, and the cells of each group were collected and centrifuged to obtain pure cells. 1 mL working solution of mitochondrial membrane potential detection kit (JC-1) was added to the collected cells, and then they were mixed thoroughly and incubated for 20 min. Then the mixture was centrifuged at 4°C. to remove working solution, and the cells were washed twice with JC-1 staining buffer (1×) on ice. Finally, 500 μL staining buffer was added to disperse the cells to obtain a cell suspension, and the change of mitochondrial membrane potential was detected by flow cytometry.
Determination of mitochondrial membrane potential: SW480 cells in logarithmic growth active phase were prepared into cell suspension and added into 6-well plate (5×10^5 cells/well). After incubation for 24 h, cells were treated with 1 mM hydroxyurea, 1 mM cLAVs and 1 mM nano-drug XI, respectively, and ntreated cells were set as blank control group. […] Finally, 500 μL staining buffer was added to disperse the cells to obtain a cell suspension, and the change of mitochondrial membrane potential was detected by flow cytometry.

[3] = system: Caspase-3; experiment: Determination of Caspase-3 activity; assay type: cell-based, human; conditions: SW480, 1 mM, incubation 24 h, relative to blank control
Procedure: Determination of Caspase-3 activity: SW480 cells in logarithmic growth active phase were prepared into cell suspension and added into 6-well plate (4×10^5 cells/well). […] After incubation for 24 h, the old culture medium was removed and cells were collected and then centrifuged for 5 min (1200 rpm/min) at 4°C. The cells were washed with cold PBS twice, and the supernatant was sucked up as much as possible every time. 100 μL of cell lysate containing 1 mM phenylmethylsulfonyl fluoride (PMSF, protease inhibitor) was added to the collected cells, which were placed on ice for 30 min and vortex once every 5 min. […] 20 μL supernatant was taken for detection with Caspase-3 activity detection kit, and the absorbance value at A405 nm or A400 was measured by microplate reader. According to the absorbance ratio of material group cells to blank control group cells, the relative Caspase-3 activity degree was calculated.
Determination of Caspase-3 activity: SW480 cells in logarithmic growth active phase were prepared into cell suspension and added into 6-well plate (5×10^5 cells/well). […] 20 μL supernatant was taken for detection with Caspase-3 activity detection kit, and the absorbance value at A405 nm or A400 nm was measured by microplate reader. According to the absorbance ratio of material group cells to blank control group cells, the relative Caspase-3 activity degree was calculated.

[4] = system: SW480 cells; experiment: Determination of cytochrome C release (western blot); assay type: cell-based, human; conditions: SW480, 1 mM, incubation 24 h
Procedure: Determination of cytochrome C release: SW480 cells in logarithmic growth active phase were prepared into cell suspension and added into 6-well plate (5×10^5 cells/well). […] After incubation for 24 h, the old culture medium was removed and cells were collected. The collected cells were centrifuged (1200 rpm/min) for 5 min at 4°C., and the supernatant was removed. The cells were washed with cold PBS twice, and die supernatant was sucked up as much as possible every lime. 100 μL of cell lysate containing 1 mM phenylmethylsulfonyl fluoride (PMSF, protease inhibitor) was added to the collected cells, which were placed on ice for 30 min and vortex once every 5 min. Then the mixture was centrifuged at 12000 rpm at 4°C. for 60 min, and the supernatant was quickly collected in another clean centrifuge tube, 20 μL supernatant was taken to analyze the content of cytochrome C in cytoplasm by western blot.
Determination of cytochrome C release: SW480 cells in logarithmic growth active phase were prepared into cell suspension and added into 6-well plate (5×10^5 cells/well). After incubation for 24 h, cells were treated with […], 1 mM cLAVs and 1 mM nano-drug XI, respectively, and untreated cells were set as blank control group. After incubation for 24 h, the old culture medium was removed and cells were collected. […]

[5] = system: Subcutaneous SW480 xenograft model; experiment: In vivo antitumor assessment, subcutaneous SW480 xenograft; set-up: species or system BALB/c nude mice; conditions: SW480 xenograft nude mice; LA/cLAVs 10 mg/kg, Hydrea 6 mg/kg; once every 3 days, 8 times
Source text: Subcutaneous SW480 xenograft model was established in BALB/c nude mice (about 20 g each) of 4 weeks old.

[6] = system: Human gingival fibroblasts (HGF); assay type: cell-based; conditions: MTT, 48 h
Procedure: Human gingival fibroblasts (HGF) in logarithmic growth active phase were selected and inoculated in 96-well plates. […] Different concentration gradients were set for each group, and 5 parallel samples were set for each concentration Untreated cells were set as blank control group. After incubation for 48 h, the old culture medium was removed, and 100 μL fresh medium containing 10% (v/v) MTT was added to each well. After incubation for another 2 h, the culture media was removed and 150 μL dimethyl sulfoxide/well was added. After shaking for 2 min, the absorbance of the solution was measured at 490 nm by using a microplate reader Varioscan Flash and cell viability was calculated.
Untreated cells were set as blank control group. After 48 h of culture, the old culture medium was removed, and 100 μL of culture medium containing 10% (v/v) MTT was added to each well. After incubation for 2 h, 150 μL DMSO was added to each well, and the absorbance at 490 nm was measured with a microplate reader for 2 min, and the cell survival rate was calculated.

SMILES	relative superoxide anion level in mitochondria [1]	mitochondrial membrane potential loss [2]	relative Caspase-3 activity [3]	cytochrome C release into cytoplasm [4]	tumor inhibition effect (tumor volume) [5]	toxicity to normal cells (cell viability) [6]
O=C(O)CCCC[C@@H]1CCSS1 [LA, (R)-(+)-lipoic acid]	can induce mitochondria to produce O2^+	can induce the decrease of mitochondrial membrane potential	can stimute the relative activity of Caspase-3			
NC(=O)NO [hydroxyurea]	can all induce mitochondria to produce O2^+	can all induce the decrease of mitochondrial membrane potential	can stimulate the relative activity of Caspase-3	promote the release of cytochrome C from the mitochondria to the cytoplasm	good tumor inhibition effect	
COc1cccc2c1C(=O)c1c(O)c3c(c(O)c1C2=O)C[C@@](O)(C(=O)CO)C[C@@H]3O[C@H]1C[C@H](N)[C@H](O)[C@H](C)O1 [DOX.HCl, doxorubicin hydrochloride]						can kill normal cells at very low doses
Nc1ccn([C@@H]2O[C@H](CO)[C@@H](O)C2(F)F)c(=O)n1 [Gem.HCl, gemcitabine hydrochloride]						can kill normal cells at very low doses
